In patent publication US20070129334A1, “Orally Active Purine-Based Inhibitors of Heat Shock Protein 90” (CONFORMA THERAPEUTICS CORPORATION, priority 2001, published 2007):
Where two headings read alike, the source gives them in different places. One block for each compound: values may come before it.

Legend:
[1] = system: Her-2 in MCF-7 cells; experiment: HER2 inhibition assay (Her-2 degradation, MCF-7 cells, 24 incubation, flow cytometry); type: cell-based; conditions: Homo sapiens, MCF7, concentration necessary to degrade 50% of Her 2 expression
Method: MCF-7 cells are seeded in 24 well plates at a density of approximately 30,000 cells/well and allowed to grow for 16 hours in DMEM supplemented with 10% FBS. Drug is then added at a concentration range of 100 uM to 0.01 uM. Cells are incubated for an additional […]. Drug treated cells and untreated control cells are trypsinized, and incubated at room temperature for 15 minutes with anti Her-2 neu Ab conjugated with phycoerythrin (Becton Dickinson, San Jose Calif.; Cat no. 340552) at a concentration of 0.25 ug/ml, or non-specific control IgG1 conjugated with phycoerythrin (Becton Dickinson, San Jose Calif.; Cat no. 340761). Samples were analyzed using a FACS Calibur flow cytometer (Becton Dickinson) equipped with Argon-ion laser that which emits 15 mW of 488 nm light for excitation of the phycoerythrin fluorochrome. 10,000 events were collected per sample. A fluorescence histogram was generated and the mean fluorescence intensity (mfi) of each sample was determined using Cellquest software. The background was defined as the mfi generated from cells incubated with control IgG, and was subtracted from each sample stained with the HER-2/neu Ab Percent degradation of Her-2 was calculated as follows: % Her-2 degradation=(mfi HER-2 sample)/(mfi HER-2 untreated cells)×100
The compounds in the table below were prepared as described above and evaluated for Her-2 degradation ability based on the above assay (example 314).

[2] = system: Purified native Hsp90 protein (mixture of alpha and beta) from HeLa cells; experiment: Fluorescence-based competitive binding assay for biotinylated-geldanamycin to purified Hsp90; design: species or system human; conditions: HSP90 binding ability; competition with biotin-GM
[3] = system: HER-2 receptor (Hsp90 client) in MCF-7 cells; experiment: HER-2 degradation assay (MCF-7 cells, 16 h, phycoerythrin-labeled antibody and flow cytometry); type: cell-based, human
[4] = Solubility in simulated gastric fluid, simulated intestinal fluid and serum; type: physicochemical; conditions: for Serum (PH 7.4): solubility in serum; for Gastric (PH 2.0): solubility in simulated gastric fluid; for Intestinal (PH 6.5): solubility in simulated intestinal fluid
[5] = Homo sapiens, MCF7, MCF-7 cells, 16 h, average of at least three observations, read-out: HER-2 IC50
[6] = Homo sapiens, MCF7, read-out: HER-2 IC50(nM)
[7] = Homo sapiens, MCF7, benzothiozole moiety SAR, MCF-7, read-out: HER-2 IC50
[8] = Homo sapiens, MCF7, read-out: HER-2

Structure (SMILES): C#CCCCn1c(Cc2cc(OC)ccc2OC)nc2c(N)nc(F)nc21 [Compound 2, 8-(2,5-dimethoxybenzyl)-N9-pentynyl-2-fluoro adenine]
IC50 [1]: 600 nM

Structure (SMILES): COc1ccc(OC)c(Cc2nc3c(N)nc(F)nc3n2CCC=C(C)C)c1 [Compound 3, 8-(2,5-Dimethoxy-benzyl)-2-fluoro-9-(4-methyl-pent-3-enyl)-9H-purin-6-ylamine]
IC50 [1]: 500 nM | IC50 [2]: 1100 nM

Structure (SMILES): COc1ccc(OC)c(Cc2nc3c(N)nc(F)nc3n2CCCCCBr)c1 [Compound 5, 8-(2,5-Dimethoxy-benzyl)-2-fluoro-9-(5-bromo-pentyl)-9H-purin-6-ylamine]
IC50 [1]: 1000 nM | IC50 [2]: 2000 nM

Structure (SMILES): C#CCCCn1c(Cc2cc(OC)ccc2OC)nc2c(N)ncnc21 [Compound 8, 8-(2,5-Dimethoxy-benzyl)-9-pent-4-ynyl-9H-purin-6-ylamine]
IC50 [1]: 1500 nM | IC50 [2]: 6000 nM

Structure (SMILES): CCCCn1c(Cc2cc(OC)ccc2I)nc2c(N)ncnc21 [Compound 20, 9-Butyl-8-(2-iodo-5-methoxy-benzyl)-9H-purin-6-ylamine]
IC50 [3, 5]: 5000 nM

Structure (SMILES): CCCCn1c(Cc2cc(OC)ccc2Br)nc2c(N)ncnc21 [Compound 23, 8-(2-Bromo-5-methoxy-benzyl)-9-butyl-9H-purin-6-ylamine]
IC50 [3, 5]: 8000 nM

Structure (SMILES): CCCCn1c(Sc2cc(OC)ccc2OC)nc2c(N)ncnc21 [Compound 43, 9-Butyl-8-(2,5-dimethoxy-phenylsulfanyl)-9H-purin-6-ylamine]
IC50 [3, 5]: 3500 nM

Structure (SMILES): C#CCCCn1c(Sc2cc(OC)ccc2I)nc2c(N)nc(F)nc21 [Compound 68, 2-Fluoro-8-(2-iodo-5-methoxy-phenylsulfanyl)-9-pent-4-ynyl-9H-purin-6-ylamine]
IC50 [3, 5]: 360 nM

Structure (SMILES): CCCCn1c(Sc2nc3cccc(OCC)c3s2)nc2c(N)ncnc21 [Compound 174, 9-Butyl-8-(7-ethoxy-benzothiazol-2-ylsulfanyl)-9H-purine-6-ylamine]
IC50 [3, 7]: 100000 nM

Structure (SMILES): CCCCn1c(Sc2nc3cncc(Cl)c3s2)nc2c(N)ncnc21 [Compound 177, 9-Butyl-8-(7-chloro-thiazole[4,5-c]pyridin-2-ylsulfanyl)-9H-purin-6-ylamine]
IC50 ([3]; pyridothiazole moiety SAR, HER-2 degradation activity, read-out: HER-2): 280 nM

Structure (SMILES): CCCCn1c(Sc2nc3ccccc3s2)nc2c(N)ncnc21 [Compound 178, 8-(Benzothiazol-2-ylsulfanyl)-9-butyl-9H-purine-6-ylamine]
IC50 [3, 7]: 5000 nM

Structure (SMILES): CCCCn1c(Sc2nc3ccc(Cl)cc3s2)nc2c(N)ncnc21 [Compound 179, 9-Butyl-8-(6-chloro-benzothiazol-2-ylsulfanyl)-9H-purine-6-ylamine]
IC50 [3, 7]: 7000 nM

Structure (SMILES): CCCCn1c(Sc2nc3cc(Cl)ccc3s2)nc2c(N)ncnc21 [Compound 180, 9-Butyl-8-(5-chloro-benzothiazol-2-ylsulfanyl)-9H-purine-6-ylamine]
IC50 [3, 7]: 20000 nM

Structure (SMILES): CCCCn1c(Sc2nc3c(Cl)cccc3s2)nc2c(N)ncnc21 [Compound 181, 9-Butyl-8-(4-chloro-benzothiazol-2-ylsulfanyl)-9H-purine-6-ylamine]
IC50 [3, 7]: 15000 nM

Structure (SMILES): CCCCn1c(Sc2nc3ccc(Cl)c(Cl)c3s2)nc2c(N)ncnc21 [Compound 185, 9-Butyl-8-(6,7-dichloro-benzothiazol-2-ylsulfanyl)-9H-purine-6-ylamine]
IC50 [3, 7]: 25000 nM

Structure (SMILES): CC(=O)OCCn1c(Sc2nc3cncc(Br)c3s2)nc2c(N)ncnc21 [Compound 204, Acetic acid 2-[6-amino-8-(7-bromo-thiazole[4,5-c]pyridin-2-ylsulfanyl)-purin-9-yl]-ethyl ester]
Gastric (PH 2.0) [4]: 98.5 µg/mL | IC50 ([3]; read-out: HER-2): 30 nM

Structure (SMILES): CC(=O)OCCCn1c(Sc2nc3cncc(Cl)c3s2)nc2c(N)ncnc21 [Compound 205, Acetic acid 3-[6-amino-8-(7-chloro-thiazolo[4,5-c]pyridin-2-ylsulfanyl)-purin-9-yl]-propyl ester]
IC50 [3, 8]: 170 nM

Structure (SMILES): CCCCn1c(Sc2nc3cncc(Br)c3s2)nc2c(N)ncnc21 [Compound 207]
IC50 [3, 8]: 400 nM

Structure (SMILES): Nc1ncnc2c1nc(Sc1nc3cccc(Cl)c3s1)n2CCN1CCOCC1 [Compound 270, 8-(7-Chloro-benzothiazol-2-ylsulfanyl)-9-(2-morpholin-4-yl-ethyl)-9H-purin-6-ylamine]
IC50 [3, 8]: 250 nM

Other lines, results leading:

IC50 [3, 6]: 330 nM
Structure (SMILES): CCCCn1c(Sc2nc3cccc(Br)c3s2)nc2c(N)ncnc21 [Compound 171, 8-(7-Bromo-benzothiazol-2-ylsulfanyl)-9-butyl-9H-purine-6-ylamine]

IC50 [3, 6]: 300 nM
Structure (SMILES): CCCCn1c(Sc2nc3cccc(C)c3s2)nc2c(N)ncnc21 [Compound 172, 9-Butyl-8-(7-methyl-benzothiazol-2-ylsulfanyl)-9H-purine-6-ylamine]

Serum (PH 7.4) [4]: 18 µg/mL | Gastric (PH 2.0) [4]: 35 µg/mL | Intestinal (PH 6.5) [4]: 2 µg/mL | IC50 [3, 6]: 190 nM
Structure (SMILES): CCCCn1c(Sc2nc3cccc(OC)c3s2)nc2c(N)ncnc21 [Compound 173, 9-Butyl-8-(7-methoxy-benzothiazol-2-ylsulfanyl)-9H-purine-6-ylamine]

IC50 [3, 6]: 200 nM
Structure (SMILES): CCCCn1c(Sc2nc3cccc(F)c3s2)nc2c(N)ncnc21 [Compound 175, 9-Butyl-8-(7-fluoro-benzothiazol-2-ylsulfanyl)-9H-purine-6-ylamine]

IC50 [3, 8]: 200 nM
Structure (SMILES): CCn1c(Sc2nc3cccc(Cl)c3s2)nc2c(N)ncnc21 [Compound 229, 9-ethyl-8-(7-chloro-benzothiazol-2-ylsulfanyl)-9H-purine-6-ylamine]

IC50 [3, 8]: 250 nM
Structure (SMILES): CCCn1c(Sc2nc3cccc(Cl)c3s2)nc2c(N)ncnc21 [Compound 231, 9-Propyl-8-(7-chloro-benzothiazol-2-ylsulfanyl)-9H-purine-6-ylamine]

IC50 [3, 8]: 180 nM | IC50 [3, 6]: 180 nM
Structure (SMILES): CCCCn1c(Sc2nc3cccc(Cl)c3s2)nc2c(N)ncnc21 [Compound 232, 9-Butyl-8-(7-chloro-benzothiazol-2-ylsulfanyl)-9H-purine-6-ylamine]

IC50 [3, 8]: 700 nM
Structure (SMILES): CCCCCn1c(Sc2nc3cccc(Cl)c3s2)nc2c(N)ncnc21 [Compound 233, 9-Pentyl-8-(7-chloro-benzothiazol-2-ylsulfanyl)-9H-purine-6-ylamine]

IC50 [3, 8]: 150 nM
Structure (SMILES): CC(=O)OCCn1c(Sc2nc3cccc(Cl)c3s2)nc2c(N)ncnc21 [Compound 241, Acetic acid 2-[6-amino-8-(7-chloro-benzothiazol-2-ylsulfanyl)-purin-9-yl]-ethyl ester]

Gastric (PH 2.0) [4]: 46 µg/mL | Intestinal (PH 6.5) [4]: 3 µg/mL | IC50 [3, 8]: 130 nM
Structure (SMILES): CC(=O)OCCCCn1c(Sc2nc3cccc(Cl)c3s2)nc2c(N)ncnc21 [Compound 243, Acetic acid 4-[6-amino-8-(7-chloro-benzothiazol-2-ylsulfanyl)-purin-9-yl]-butyl ester]

IC50 [3, 8]: 300 nM
Structure (SMILES): Nc1ncnc2c1nc(Sc1nc3cccc(Cl)c3s1)n2CCO [Compound 244, 2-[6-Amino-8-(7-chloro-benzothiazol-2-ylsulfanyl)-purin-9-yl]-ethanol]

IC50 [3, 8]: 150 nM
Structure (SMILES): Nc1ncnc2c1nc(Sc1nc3cccc(Cl)c3s1)n2CCCO [Compound 245]

IC50 [3, 8]: 150 nM
Structure (SMILES): Nc1ncnc2c1nc(Sc1nc3cccc(Cl)c3s1)n2CCCCO [Compound 246, 4-[6-Amino-8-(7-chloro-benzothiazol-2-ylsulfanyl)-purin-9-yl]-butan-1-ol]

Serum (PH 7.4) [4]: 4.9 µg/mL | Intestinal (PH 6.5) [4]: 6 µg/mL | IC50 [3, 8]: 35 nM
Structure (SMILES): CC(C)(C)CNCCn1c(Sc2nc3cccc(Cl)c3s2)nc2c(N)ncnc21 [Compound 247, 8-(7-Chloro-benzothiazol-2-ylsulfanyl)-9-[2-(2,2-dimethyl-propylamino)-ethyl]-9H-purin-6-yl amine]

Serum (PH 7.4) [4]: 198.7 µg/mL | Intestinal (PH 6.5) [4]: 137.7 µg/mL | IC50 [3, 8]: 150 nM
Structure (SMILES): CC(C)(C)NCCCn1c(Sc2nc3cccc(Cl)c3s2)nc2c(N)ncnc21 [Compound 253, 9-(3-tert-Butylamino-propyl)-8-(7-chloro-benzothiazol-2-ylsulfanyl)-9H-purin-6-yl amine]

IC50 [3, 8]: 140 nM
Structure (SMILES): CC(C)(C)NCCn1c(Sc2nc3cccc(Cl)c3s2)nc2c(N)ncnc21 [Compound 265, 9-(2-tert-Butylamino-ethyl)-8-(7-chloro-benzothiazole-2-ylsulfanyl)-9H-purin-6-yl amine]

IC50 [3, 8]: 170 nM
Structure (SMILES): CC(C)NCCCn1c(Sc2nc3cccc(Cl)c3s2)nc2c(N)ncnc21 [Compound 266, 8-(7-Chloro-benzothiazol-2-ylsulfanyl)-9-(3-isopropylamino-propyl)-9H-purin-6-yl amine]

Serum (PH 7.4) [4]: 31.3 µg/mL | Gastric (PH 2.0) [4]: 58.7 µg/mL | Intestinal (PH 6.5) [4]: 4.4 µg/mL | IC50 [3, 8]: 110 nM
Structure (SMILES): N#CCCCCn1c(Sc2nc3cccc(Cl)c3s2)nc2c(N)ncnc21 [Compound 284, 5-[6-Amino-8-(7-chloro-benzothiazol-2-ylsulfanyl)-purin-9-yl]-pentanenitrile]
